ChEMBL document CHEMBL1201862, “PubChem BioAssay data set” (2004)
Active and inactive are the calls of the source.

Legend:
[1] = biological target: Sphingosine 1-phosphate receptor 2 (Homo sapiens, UniProt O95136); assay: Late stage counterscreen assay for S1P4 antagonists: Fluorescence dose response cell-based screening assay for antagonists of the Sphingosine 1-Phosphate Receptor 2 (S1P2). [Related pubchem assays (depositor defined):AID1510, AID1524, AID1692, AID1853, AID2332, AID489009, AID489017]; type: functional
Sequence of Sphingosine 1-phosphate receptor 2 (O95136 whole entry): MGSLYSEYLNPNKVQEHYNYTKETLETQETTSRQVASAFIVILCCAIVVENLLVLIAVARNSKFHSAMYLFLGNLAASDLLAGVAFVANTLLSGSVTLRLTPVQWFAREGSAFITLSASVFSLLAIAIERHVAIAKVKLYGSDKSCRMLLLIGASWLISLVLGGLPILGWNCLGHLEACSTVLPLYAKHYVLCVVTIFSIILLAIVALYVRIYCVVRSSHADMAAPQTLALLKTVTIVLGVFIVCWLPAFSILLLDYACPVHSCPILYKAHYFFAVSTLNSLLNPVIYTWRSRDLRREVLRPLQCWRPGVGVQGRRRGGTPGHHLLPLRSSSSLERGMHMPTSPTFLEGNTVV

[2] = Late-stage results from the probe development effort to identify antagonists of the Sphingosine 1-Phosphate Receptor 4 (S1P4): luminescence-based cell-based dose response assay to determine cytotoxicity of antagonist compounds. [Related pubchem assays (depositor defined):AID1510, AID1524, AID1564, AID1692, AID1821, AID1853, AID2332, AID2346, AID2349, AID2350, AID2351, AID2354]; type: functional
[3] = biological target: Sphingosine 1-phosphate receptor 5 (Homo sapiens, UniProt Q9H228); assay: Late stage counterscreen assay for S1P4 antagonists: Fluorescence dose response cell-based screening assay for antagonists of the Sphingosine 1-Phosphate Receptor 5 (S1P5). [Related pubchem assays (depositor defined):AID1510, AID1524, AID1692, AID1853, AID2332, AID489009, AID489017]; type: functional
Sequence of Sphingosine 1-phosphate receptor 5 (Q9H228 whole entry): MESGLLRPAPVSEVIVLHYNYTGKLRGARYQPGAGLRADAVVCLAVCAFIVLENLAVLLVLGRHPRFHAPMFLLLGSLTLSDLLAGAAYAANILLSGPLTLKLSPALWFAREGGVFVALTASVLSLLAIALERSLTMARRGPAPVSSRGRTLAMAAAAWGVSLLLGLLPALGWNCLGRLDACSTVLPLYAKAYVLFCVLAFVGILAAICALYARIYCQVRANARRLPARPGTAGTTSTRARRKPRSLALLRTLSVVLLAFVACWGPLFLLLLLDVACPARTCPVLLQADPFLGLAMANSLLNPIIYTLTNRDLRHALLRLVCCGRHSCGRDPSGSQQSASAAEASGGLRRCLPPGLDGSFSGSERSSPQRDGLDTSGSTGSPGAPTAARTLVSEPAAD

[4] = biological target: Sphingosine 1-phosphate receptor 1 (Homo sapiens, UniProt P21453); assay: Late stage counterscreen assay for S1P4 antagonists: Fluorescence dose response cell-based screening assay for antagonists of the Sphingosine 1-Phosphate Receptor 1 (S1P1). [Related pubchem assays (depositor defined):AID1510, AID1524, AID1692, AID1853, AID2332, AID489009, AID489017]; type: functional
[5] = biological target: Sphingosine 1-phosphate receptor 3 (Homo sapiens, UniProt Q99500); assay: Late stage counterscreen assay for S1P4 antagonists: Fluorescence dose response cell-based screening assay for antagonists of the Sphingosine 1-Phosphate Receptor 3 (S1P3). [Related pubchem assays (depositor defined):AID1510, AID1524, AID1692, AID1853, AID2332, AID489009, AID489017]; type: functional
Sequence of Sphingosine 1-phosphate receptor 3 (Q99500 whole entry): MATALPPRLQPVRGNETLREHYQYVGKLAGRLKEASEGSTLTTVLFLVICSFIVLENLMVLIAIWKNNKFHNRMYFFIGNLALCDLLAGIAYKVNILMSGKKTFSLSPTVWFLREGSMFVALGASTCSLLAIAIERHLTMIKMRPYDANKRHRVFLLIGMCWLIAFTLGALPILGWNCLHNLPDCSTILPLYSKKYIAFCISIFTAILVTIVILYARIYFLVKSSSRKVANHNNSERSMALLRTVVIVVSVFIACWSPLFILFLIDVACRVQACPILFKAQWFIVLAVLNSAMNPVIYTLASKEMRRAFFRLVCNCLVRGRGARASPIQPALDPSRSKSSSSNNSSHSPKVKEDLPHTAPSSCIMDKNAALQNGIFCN

[6] = biological target: T1, Intestinal-type alkaline phosphatase (Homo sapiens, UniProt P09923); assay: human intestinal alkaline phosphatase activators, dose response, biochemical, luminescence, uHTS hits (AID 463120); type: functional
T1 sequence (P09923 whole entry): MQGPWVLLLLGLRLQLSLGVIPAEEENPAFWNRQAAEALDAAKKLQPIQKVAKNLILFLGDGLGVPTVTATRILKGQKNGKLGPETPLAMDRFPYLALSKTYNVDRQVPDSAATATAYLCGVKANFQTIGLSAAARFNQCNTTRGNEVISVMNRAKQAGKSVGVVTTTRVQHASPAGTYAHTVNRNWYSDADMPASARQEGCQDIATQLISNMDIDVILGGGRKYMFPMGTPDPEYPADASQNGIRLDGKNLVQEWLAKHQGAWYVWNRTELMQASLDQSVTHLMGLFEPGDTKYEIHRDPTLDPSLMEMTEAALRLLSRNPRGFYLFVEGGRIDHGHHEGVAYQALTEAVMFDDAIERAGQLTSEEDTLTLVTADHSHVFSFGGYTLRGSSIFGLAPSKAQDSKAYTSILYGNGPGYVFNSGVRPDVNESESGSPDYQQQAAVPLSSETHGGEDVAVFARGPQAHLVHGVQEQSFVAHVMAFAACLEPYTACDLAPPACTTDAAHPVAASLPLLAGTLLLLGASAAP

[7] = biological target: T2, Alkaline phosphatase, tissue-nonspecific isozyme (Homo sapiens, UniProt P05186); assay: TNAP enzyme activators, dose response, selectivity assay for human IAP activator project, biochemical, TNAP isozyme, human IAP uHTS hits (AID 488886); type: functional;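 further: potency of compounds raising TNAP activity as a selectivity check on IAP activators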
T2 sequence (P05186 whole entry): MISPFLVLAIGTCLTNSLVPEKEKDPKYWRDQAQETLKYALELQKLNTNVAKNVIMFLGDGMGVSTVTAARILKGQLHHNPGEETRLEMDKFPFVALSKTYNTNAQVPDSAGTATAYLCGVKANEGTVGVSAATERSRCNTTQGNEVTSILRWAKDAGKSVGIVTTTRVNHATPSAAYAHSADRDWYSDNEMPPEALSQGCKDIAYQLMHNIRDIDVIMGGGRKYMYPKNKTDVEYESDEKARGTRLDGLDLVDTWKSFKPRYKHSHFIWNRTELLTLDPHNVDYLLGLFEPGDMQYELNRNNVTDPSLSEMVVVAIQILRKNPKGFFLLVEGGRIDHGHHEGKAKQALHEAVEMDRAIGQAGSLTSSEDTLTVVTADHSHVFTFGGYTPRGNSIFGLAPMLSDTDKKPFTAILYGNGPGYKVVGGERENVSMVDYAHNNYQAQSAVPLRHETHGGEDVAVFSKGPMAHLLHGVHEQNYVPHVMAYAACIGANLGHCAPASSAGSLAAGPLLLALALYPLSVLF

[8] = biological target: Nucleotide-binding oligomerization domain-containing protein 1 (Homo sapiens, UniProt Q9Y239); assay: NOD1 signaling inhibitors, SAR follow-up, revised (AID 2333); type: functional
Sequence of Nucleotide-binding oligomerization domain-containing protein 1 (Q9Y239 whole entry, the tested form may be a part): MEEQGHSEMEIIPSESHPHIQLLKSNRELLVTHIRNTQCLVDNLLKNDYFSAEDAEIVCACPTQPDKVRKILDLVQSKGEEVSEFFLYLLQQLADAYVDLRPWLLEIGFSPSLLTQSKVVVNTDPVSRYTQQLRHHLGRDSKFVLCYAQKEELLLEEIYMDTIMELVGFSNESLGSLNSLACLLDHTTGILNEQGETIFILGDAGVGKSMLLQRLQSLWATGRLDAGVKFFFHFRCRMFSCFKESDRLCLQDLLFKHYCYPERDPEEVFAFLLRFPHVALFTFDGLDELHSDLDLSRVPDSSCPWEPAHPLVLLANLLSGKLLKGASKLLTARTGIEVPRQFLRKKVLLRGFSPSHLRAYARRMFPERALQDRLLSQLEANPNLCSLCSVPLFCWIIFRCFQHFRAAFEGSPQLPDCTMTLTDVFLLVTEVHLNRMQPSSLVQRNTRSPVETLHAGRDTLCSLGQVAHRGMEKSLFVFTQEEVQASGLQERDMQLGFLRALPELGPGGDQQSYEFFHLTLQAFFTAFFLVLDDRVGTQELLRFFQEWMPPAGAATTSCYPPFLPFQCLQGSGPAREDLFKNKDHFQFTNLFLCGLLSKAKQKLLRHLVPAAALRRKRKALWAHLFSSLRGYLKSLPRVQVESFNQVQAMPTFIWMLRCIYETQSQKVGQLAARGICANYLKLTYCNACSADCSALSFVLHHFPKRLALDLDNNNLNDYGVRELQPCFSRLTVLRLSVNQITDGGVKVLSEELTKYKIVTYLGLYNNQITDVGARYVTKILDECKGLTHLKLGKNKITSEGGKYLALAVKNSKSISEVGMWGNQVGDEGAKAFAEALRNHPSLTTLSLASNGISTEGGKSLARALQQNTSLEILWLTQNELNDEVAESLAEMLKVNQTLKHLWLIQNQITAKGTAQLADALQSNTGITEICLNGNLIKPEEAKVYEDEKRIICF

[9] = biological target: Intestinal-type alkaline phosphatase (Mus musculus, UniProt P24822); assay: PubChem AID 488874; type: functional
[10] = biological target: Nucleotide-binding oligomerization domain-containing protein 2 (Homo sapiens, UniProt Q9HC29); assay: PubChem AID 2334; type: functional
Sequence of Nucleotide-binding oligomerization domain-containing protein 2 (Q9HC29 whole entry, the tested form may be a part): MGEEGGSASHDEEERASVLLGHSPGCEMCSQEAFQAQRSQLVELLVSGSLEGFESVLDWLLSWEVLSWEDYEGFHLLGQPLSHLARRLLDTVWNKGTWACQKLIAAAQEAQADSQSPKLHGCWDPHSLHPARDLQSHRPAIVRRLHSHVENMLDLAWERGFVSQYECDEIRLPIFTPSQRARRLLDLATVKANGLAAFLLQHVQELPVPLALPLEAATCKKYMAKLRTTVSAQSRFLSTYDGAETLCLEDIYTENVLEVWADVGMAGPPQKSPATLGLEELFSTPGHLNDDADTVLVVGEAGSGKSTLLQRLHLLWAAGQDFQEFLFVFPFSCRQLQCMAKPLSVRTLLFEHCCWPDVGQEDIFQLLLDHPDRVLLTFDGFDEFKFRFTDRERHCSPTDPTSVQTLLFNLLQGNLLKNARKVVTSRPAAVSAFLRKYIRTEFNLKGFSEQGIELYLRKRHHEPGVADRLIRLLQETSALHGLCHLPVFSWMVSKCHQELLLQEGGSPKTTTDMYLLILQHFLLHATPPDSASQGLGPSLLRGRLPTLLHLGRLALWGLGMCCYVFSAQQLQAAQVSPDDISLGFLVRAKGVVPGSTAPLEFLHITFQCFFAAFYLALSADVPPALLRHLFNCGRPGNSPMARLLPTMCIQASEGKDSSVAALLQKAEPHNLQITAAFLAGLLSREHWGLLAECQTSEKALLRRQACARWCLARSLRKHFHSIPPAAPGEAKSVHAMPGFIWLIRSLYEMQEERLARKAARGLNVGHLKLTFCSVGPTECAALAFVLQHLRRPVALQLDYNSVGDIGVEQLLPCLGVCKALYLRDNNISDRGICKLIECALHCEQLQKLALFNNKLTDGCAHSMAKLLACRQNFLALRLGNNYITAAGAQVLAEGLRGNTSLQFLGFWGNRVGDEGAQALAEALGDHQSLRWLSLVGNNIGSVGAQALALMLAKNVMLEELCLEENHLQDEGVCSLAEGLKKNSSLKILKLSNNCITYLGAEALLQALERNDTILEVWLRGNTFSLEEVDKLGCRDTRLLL

[11] = biological target: T1, Intestinal-type alkaline phosphatase; assay: human IAP activators, dose response, biochemical, luminescent, uHTS hits, set 2 (AID 488817); type: functional;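 further: potency of activators that raise enzyme activity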
[12] = system: HEK293; assay: cells; conditions: Homo sapiens;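 further: cells exposed to compound for 14 hours overnight before viability readout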
[13] = biological target: Tumor necrosis factor (Homo sapiens, UniProt P01375); assay: TNFa-triggered NF-kB activation inhibitors, SAR follow-up, cell-based, revised (AID 2337); type: functional
Sequence of Tumor necrosis factor (P01375 whole entry): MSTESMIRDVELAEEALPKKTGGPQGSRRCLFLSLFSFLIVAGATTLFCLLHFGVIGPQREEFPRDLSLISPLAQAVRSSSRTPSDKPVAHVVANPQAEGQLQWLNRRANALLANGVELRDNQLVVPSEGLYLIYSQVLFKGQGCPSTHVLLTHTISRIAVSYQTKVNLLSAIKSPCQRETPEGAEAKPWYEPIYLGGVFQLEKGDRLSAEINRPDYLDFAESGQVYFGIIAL

[14] = biological target: T3, Tyrosine-protein phosphatase non-receptor type 22 (Homo sapiens, UniProt Q9Y2R2); type: functional
T3 sequence (Q9Y2R2 whole entry): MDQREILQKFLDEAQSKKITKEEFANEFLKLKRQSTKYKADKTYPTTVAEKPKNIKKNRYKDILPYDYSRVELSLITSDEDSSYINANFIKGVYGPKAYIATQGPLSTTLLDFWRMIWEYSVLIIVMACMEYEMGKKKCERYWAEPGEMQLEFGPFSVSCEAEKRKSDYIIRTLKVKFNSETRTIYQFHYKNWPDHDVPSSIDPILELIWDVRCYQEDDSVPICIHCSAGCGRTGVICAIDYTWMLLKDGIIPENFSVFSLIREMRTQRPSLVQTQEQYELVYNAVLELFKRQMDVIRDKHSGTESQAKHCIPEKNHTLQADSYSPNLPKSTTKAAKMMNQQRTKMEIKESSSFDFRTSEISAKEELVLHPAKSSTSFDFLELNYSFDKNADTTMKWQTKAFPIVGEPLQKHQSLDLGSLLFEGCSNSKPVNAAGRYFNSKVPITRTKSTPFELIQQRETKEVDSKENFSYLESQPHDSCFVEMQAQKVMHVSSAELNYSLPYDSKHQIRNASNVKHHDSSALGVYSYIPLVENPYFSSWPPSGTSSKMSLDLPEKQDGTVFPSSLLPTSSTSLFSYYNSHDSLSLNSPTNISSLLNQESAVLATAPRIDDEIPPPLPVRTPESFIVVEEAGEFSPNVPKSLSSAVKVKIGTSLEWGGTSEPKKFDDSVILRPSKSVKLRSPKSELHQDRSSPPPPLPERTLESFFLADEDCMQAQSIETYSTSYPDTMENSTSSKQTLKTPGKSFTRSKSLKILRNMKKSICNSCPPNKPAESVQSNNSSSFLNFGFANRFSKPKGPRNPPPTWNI

[15] = biological target: T4, Tyrosine-protein phosphatase non-receptor type 7 (Homo sapiens, UniProt P35236); type: functional
T4 sequence (P35236 whole entry): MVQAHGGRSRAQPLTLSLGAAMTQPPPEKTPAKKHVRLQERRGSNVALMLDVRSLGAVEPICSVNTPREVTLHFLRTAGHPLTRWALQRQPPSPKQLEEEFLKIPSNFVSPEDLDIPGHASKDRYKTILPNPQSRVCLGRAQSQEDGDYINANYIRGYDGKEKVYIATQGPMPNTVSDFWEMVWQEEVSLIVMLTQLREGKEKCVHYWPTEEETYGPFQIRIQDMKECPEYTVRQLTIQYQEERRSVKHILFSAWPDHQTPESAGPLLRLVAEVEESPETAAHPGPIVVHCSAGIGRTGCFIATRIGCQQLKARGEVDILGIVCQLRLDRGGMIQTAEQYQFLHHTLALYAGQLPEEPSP

[16] = biological target: T5, Galanin receptor type 3 (Homo sapiens, UniProt O60755); assay: Fluorescence-based cell-based primary high throughput dose response assay to identify antagonists of the Galanin Receptor 3 (GalR3).; type: functional
T5 sequence (O60755 whole entry): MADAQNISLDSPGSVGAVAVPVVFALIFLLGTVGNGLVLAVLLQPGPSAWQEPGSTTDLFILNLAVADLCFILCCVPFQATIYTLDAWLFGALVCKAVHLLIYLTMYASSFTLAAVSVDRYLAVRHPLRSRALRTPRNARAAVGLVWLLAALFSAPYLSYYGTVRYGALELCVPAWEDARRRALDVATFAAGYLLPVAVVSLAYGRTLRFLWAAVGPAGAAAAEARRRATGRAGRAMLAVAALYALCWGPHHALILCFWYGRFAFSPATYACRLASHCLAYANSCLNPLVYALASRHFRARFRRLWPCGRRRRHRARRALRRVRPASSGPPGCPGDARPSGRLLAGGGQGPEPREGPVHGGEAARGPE

[17] = biological target: T3, Tyrosine-protein phosphatase non-receptor type 22; type: functional; remark: listed apart in the source
[18] = inhibitors of intracellular T. cruzi replication, confirmation, NIH3T3 host cells, beta-gal luminescence (AID 2044); type: functional, cell-based;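 further: intracellular parasites grown in NIH/3T3 mouse fibroblasts as host cells; luminescent beta-galactosidase reporter signal from transgenic T. cruzi replicating inside host cells; inhibitors lower the luminescence signal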
[19] = cells; type: functional, cell-based; conditions: HEK-CNG
[20] = cytotoxicity toward NIH3T3 fibroblasts, dose response, counter-screen, cell-based, ATP luminescence, mouse fibroblasts (AID 2010); type: functional;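 further: cells exposed to compound for about 90 hours before reading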
[21] = biological target: SUMO E1/E2 (Homo sapiens, UniProt P63279+Q9UBE0+Q9UBT2); assay: SAR analysis of SUMOylation using HTRF in an in-Vitro dose response assay. [Related pubchem assays (depositor defined):AID2006, AID2011, AID2018, AID2069, AID2658]; type: functional
[22] = biological target: Mu-type opioid receptor (Homo sapiens, UniProt P35372); assay: HTS Image-Based Screen for Agonists of the MOR Receptor. [Related pubchem assays (depositor defined):AID1777, AID1785, AID1786, AID2133]; type: functional;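 further: imaging of beta-arrestin GFP recruitment into spots after receptor activation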
[23] = biological target: T6, Kappa-type opioid receptor (Homo sapiens, UniProt P41145); type: functional
T6 sequence (P41145 whole entry): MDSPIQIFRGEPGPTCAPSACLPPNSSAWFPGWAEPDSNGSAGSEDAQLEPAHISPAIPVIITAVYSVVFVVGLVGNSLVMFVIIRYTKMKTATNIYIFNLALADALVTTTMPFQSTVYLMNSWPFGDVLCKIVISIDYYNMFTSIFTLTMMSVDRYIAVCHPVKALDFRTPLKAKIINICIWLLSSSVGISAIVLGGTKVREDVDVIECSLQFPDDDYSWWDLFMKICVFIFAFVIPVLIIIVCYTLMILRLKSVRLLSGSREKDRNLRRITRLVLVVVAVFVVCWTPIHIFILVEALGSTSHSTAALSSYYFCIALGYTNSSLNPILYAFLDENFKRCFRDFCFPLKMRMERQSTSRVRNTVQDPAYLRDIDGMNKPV

[24] = biological target: T6, Kappa-type opioid receptor; type: functional; remark: listed apart in the source
[25] = biological target: Ion channel NompC (Danio rerio, UniProt Q7T1G6); assay: Fluorescence counterscreen assay for TRPML3 agonists: dose response cell-based high-throughput screening assay to identify agonists of the transient receptor potential channel N1 (TRPN1). [Related pubchem assays: 1526, 1424, 1448 ]; type: functional
[26] = biological target: T7, Delta-type opioid receptor (Homo sapiens, UniProt P41143); assay: HTS Image-Based Screen for Antagonists of the DOR Receptor. [Related pubchem assays (depositor defined):AID1777, AID1785, AID1786, AID2133]; type: functional
T7 sequence (P41143 whole entry): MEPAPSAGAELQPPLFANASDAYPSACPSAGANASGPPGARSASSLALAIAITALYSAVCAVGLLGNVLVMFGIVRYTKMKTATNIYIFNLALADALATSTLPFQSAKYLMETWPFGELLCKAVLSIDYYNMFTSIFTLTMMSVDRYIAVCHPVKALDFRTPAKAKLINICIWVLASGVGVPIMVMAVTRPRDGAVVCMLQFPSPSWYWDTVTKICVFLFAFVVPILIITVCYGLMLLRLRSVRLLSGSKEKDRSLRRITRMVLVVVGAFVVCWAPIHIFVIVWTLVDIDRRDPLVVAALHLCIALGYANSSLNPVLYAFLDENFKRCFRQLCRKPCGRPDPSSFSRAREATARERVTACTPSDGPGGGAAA

[27] = biological target: T8, Mucolipin-3 (Homo sapiens, UniProt Q8TDD5); assay: Dose response cell-based high-throughput screening assay for agonists of the transient receptor potential channel ML3 (TRPML3). [Related pubchem assays: 1526, 1424, 1448 ]; type: functional
T8 sequence (Q8TDD5 whole entry): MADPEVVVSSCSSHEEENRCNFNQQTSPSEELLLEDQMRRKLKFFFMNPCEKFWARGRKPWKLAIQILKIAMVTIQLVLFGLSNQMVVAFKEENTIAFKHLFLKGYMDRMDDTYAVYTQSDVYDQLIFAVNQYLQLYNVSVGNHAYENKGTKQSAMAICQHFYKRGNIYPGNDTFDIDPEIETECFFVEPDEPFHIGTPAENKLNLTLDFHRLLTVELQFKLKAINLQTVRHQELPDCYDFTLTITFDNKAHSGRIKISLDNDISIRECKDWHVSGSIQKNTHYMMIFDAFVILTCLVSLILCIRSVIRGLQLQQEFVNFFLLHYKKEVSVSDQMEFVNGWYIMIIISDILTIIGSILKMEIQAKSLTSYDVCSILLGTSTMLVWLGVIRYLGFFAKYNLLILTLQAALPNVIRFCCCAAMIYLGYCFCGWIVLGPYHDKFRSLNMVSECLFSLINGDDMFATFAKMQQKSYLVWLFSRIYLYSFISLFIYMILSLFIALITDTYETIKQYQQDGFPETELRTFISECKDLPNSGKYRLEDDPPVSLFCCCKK

[28] = Shn3 3'UTR reporter inhibitors, dose response, cell-based, Clone20 osteoblasts, firefly luciferase, cherry-picked (AID 624132); type: functional;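 further: firefly luciferase luminescence from reporter carrying the Shn3 3'UTR in osteoblasts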
[29] = HepG2 cell cytotoxicity, dose response, cytotoxicity control for Shn3 inhibitor project, CellTiter-Glo, cherry-picked (AID 624134); type: functional, cell-based
[30] = biological target: T7, Delta-type opioid receptor; assay: HTS Image-Based Screen for Agonists of the DOR Receptor. [Related pubchem assays (depositor defined):AID1777, AID1786, AID2133]; type: functional
[31] = control 3'UTR Renilla luciferase suppression, dose response, counter-screen for Shn3 inhibitor project, cell-based, Clone20-Shn3RL, cherry-picked (AID 624133); type: functional

CCc1cccc(CC)c1NC(=O)c1ccc(-c2cc(Cl)ccc2Cl)o1
IC50 [1]: > 25 µM (inactive) | CC50 [2]: > 20 µM (inactive) | IC50 [3]: > 25 µM (inactive) | IC50 [4]: > 25 µM (inactive) | IC50 [5]: > 25 µM (inactive)

Cc1cc(Br)ccc1SCC(=O)OC/C(O)=C(\C#N)c1nc2ccccc2[nH]1
EC50 [6]: 13.4 µM (active) | EC50 [7]: 24.1 µM (active) | IC50 [8]: > 20 µM (inactive) | IC50 [9]: > 100 µM (inactive) | IC50 [10]: > 20 µM (inactive) | EC50 [11]: 27.5 µM (active) | IC50 [12]: > 20 µM (inactive) | IC50 [13]: > 20 µM (inactive)

COC(=O)C1CCN(Cc2ccc(OCCCN3CCN(c4ccc([N+](=O)[O-])cc4)CC3)cc2)CC1
IC50 [14]: > 79.4 µM (inactive) | IC50 [15]: > 79.4 µM (inactive) | IC50 [16]: 1.33 µM (active) | IC50 [17]: > 79.4 µM (inactive) | EC50 [18]: 0.257 µM (active) | EC50 [19]: > 29.9 µM (inactive) | EC50 [20]: > 30 µM (not active)

C/C(=N\OCc1nc2ccccc2c(=O)n1/N=C/c1ccc(Cl)cc1)c1ccccc1
IC50 [21]: > 100 µM (inactive)

COc1ccc(CCN2C(=O)CS/C2=N\c2ccc(C(C)C)cc2)cc1OC
EC50 [22]: > 32 µM (inactive) | EC50 [23]: 6.83 µM | EC50 [24]: 5.88 µM | EC50 [25]: > 29.9 µM (not active) | IC50 [26]: > 32 µM (inactive) | EC50 [27]: > 29.9 µM (not active) | AC50 [28]: 4.49 µM (active) | AC50 [29]: 5.37 µM (active) | EC50 [30]: > 32 µM (inactive) | AC50 [31]: 7.07 µM (active)
